Test results reported in patent publication US9545384B2, “Nanoparticles comprising drug, a non-ionizable cellulosic polymer and tocopheryl polyethylene glocol succinate” (Bend Research, Inc., priority 2007, dated 2017).
Values after ≈ are worked out from the molar mass of the structure shown.

Columns and labels:
Log P = type: physicochemical; details: octanol/water
Description: The first property of hydrophobic drugs is that they are extremely hydrophobic. Log P, defined as the base 10 logarithm of the ratio of the drug solubility in octanol to the drug solubility in water, is a widely accepted measure of hydrophobicity. By “extremely hydrophobic” is meant that the Log P value of the drug is at least 4.0, preferably at least 4.5, and most preferably at least 5.0. Log P may be measured experimentally or calculated using methods known in the art. When using a calculated value for Log P, the highest value calculated using any generally accepted method for calculating Log P is used. Calculated Log P values are often referred to by the calculation method, such as C log P, A log P, and M log P. The Log P may also be estimated using fragmentation methods, such as Crippen's fragmentation method (27 J. Chem. Inf. Comput. Sci. 21 (1987)); Viswanadhan's fragmentation method (29 J. Chem. Inf. Comput. Sci. 163 (1989)); or Broto's fragmentation method (19 Eur. J. Med. Chem.-Chim. Theor. 71 (1984). Preferably the Log P value is calculated by using the average value estimated using Crippen's, Viswanadhan's, and Broto's fragmentation methods.

[1] = Solubility of drug in water; type: physicochemical
[2] = Solubility of drug in model fasted duodenal (MFD) solution; type: physicochemical; details: fassgf or other biorelevant
[3] = for Observations: pH 6.5
Experimental: The polymer is a poorly aqueous soluble non-ionizable cellulosic polymer. […] An appropriate PBS solution is an aqueous solution comprising 20 mM sodium phosphate (Na2HPO4), 47 mM potassium phosphate (KH2PO4), 87 mM NaCl, and 0.2 mM KCl, adjusted to pH 6.5 with NaOH. A test to determine whether the polymer is insoluble may be performed as follows. The polymer is initially present in bulk powder form with average particle sizes of greater than about 1 micron. The polymer alone is administered at a concentration of 0.2 mg/mL to the PBS solution and stirred for approximately 1 hour at room temperature. Next, a nylon 0.45 μm filter is weighed, and the polymer solution is filtered. The filter is dried overnight at 40° C., and weighed the following morning. The amount of polymer dissolved is calculated from the amount of polymer added to the PBS solution minus the amount of polymer remaining on the filter (mg). […] These polymers were evaluated using the following procedure to determine their aqueous solubility. First, 0.2 mg/mL of the polymer is added to a PBS solution consisting of 20 mM Na2HPO4, 47 mM KH2PO4, 87 mM NaCl, and 0.2 mM KCl, adjusted to pH 6.5 with NaOH. The polymer is stirred in the PBS solution for approximately 1 hour at room temperature. Next, the polymer solution is filtered through a nylon 0.45 μm filter that had been weighed dry prior to filtration. The filter is dried overnight at 40° C., and weighed the following morning. The amount of soluble polymer is calculated from amount of polymer added to form the polymer solution minus the amount of polymer remaining on the filter.

Molecule | solubility [1] [µg/mL] | solubility [2] [µg/mL] | Soluble at pH 6.5 [3] [mg/mL] | Observations [3] | further results
Cc1onc(-c2ccccc2)c1-c1ccc(S(N)(=O)=O)cc1 [Drug 1, 4-(5-methyl-3-phenyl-4-isoxazolyl)benzenesulfonamide] | ~10 (≈ 31.8 µM) |  |  |  | logP (Log P): ~3
Cc1ccc(-c2cc(C(F)(F)F)nn2-c2ccc(S(N)(=O)=O)cc2)cc1 [Drug 3, 4-[5-(4-methylphenyl)-3-(trifluoromethyl)-1H-pyrazol-1-yl]benzenesulfonamide, reference compound] |  | ~40 (≈ 105 µM) |  |  | 
Cellulose Acetate |  |  | 0.03 | Fine particle | 
Ethylcellulose |  |  | <0.001 | Fine particle | 

Continued, in another order:

solubility [1] [µg/mL] | solubility [2] [µg/mL] | Soluble at pH 6.5 [3] [mg/mL] | Observations [3] | Molecule | further results
 | ~11 (≈ 18.4 µM) |  |  | CC[C@@H]1C[C@H](N(Cc2cc(C(F)(F)F)cc(C(F)(F)F)c2)C(C)=O)c2cc(C(F)(F)F)ccc2N1C(=O)OC(C)C [Drug 2, [2R,4S]-4-[acetyl-(3,5-bis-trifluoromethyl-benzyl)-amino]-2-ethyl-6-trifluoromethyl-3,4-dihydro-2H-quinoline-1-carboxylic acid isopropyl ester] | 
< 0.1 |  |  |  | CCOC(=O)N1c2ccc(C(F)(F)F)cc2[C@@H](N(Cc2cc(C(F)(F)F)cc(C(F)(F)F)c2)C(=O)OC)C[C@H]1CC [Torcetrapib, [2R,4S]4-[(3,5-bis-trifluoromethyl-benzyl)-methoxycarbonyl-amino]-2-ethyl-6-trifluoromethyl-3,4-dihydro-2H-quinoline-1-carboxylic acid ethyl ester] | 
